Reference: PMC2834185 (Nature chemical biology, 2010)
Entries after “also recorded” stand apart in the source; their conditions may differ.

How the values were obtained:
embryonic zebrafish [1] = assay: photomotor response; assay type: in vivo; conditions: for effect on PMR excitation phase (motor response to the first stimulus) / effect on motor activity in the PMR / effect on PMR latency period / effect on PMR refractory period (response to the second stimulus): embryonic zebrafish; for effect on PMR excitation phase (motor response to the first stimulus) / effect on motor activity in the PMR / effect on PMR latency period: light stimulus; for suppression of AzMet behavioral effects (PMR excitation): AzMet co—treated with 2—PAM and atropine; for effect on PMR refractory period (response to the second stimulus): second light pulse
embryonic zebrafish [2] = assay: embryonic touch response; assay type: in vivo; conditions: touch stimulus
purified AChE = purified AChE (Homo sapiens, UniProt P22303); assay: AChE activity assay in vitro; conditions: 10 μM
MAO—B = target: T1, MAO—B (Homo sapiens, UniProt P27338); conditions: in vitro; warfarin at 10 μM
T1 sequence (P27338 1-520): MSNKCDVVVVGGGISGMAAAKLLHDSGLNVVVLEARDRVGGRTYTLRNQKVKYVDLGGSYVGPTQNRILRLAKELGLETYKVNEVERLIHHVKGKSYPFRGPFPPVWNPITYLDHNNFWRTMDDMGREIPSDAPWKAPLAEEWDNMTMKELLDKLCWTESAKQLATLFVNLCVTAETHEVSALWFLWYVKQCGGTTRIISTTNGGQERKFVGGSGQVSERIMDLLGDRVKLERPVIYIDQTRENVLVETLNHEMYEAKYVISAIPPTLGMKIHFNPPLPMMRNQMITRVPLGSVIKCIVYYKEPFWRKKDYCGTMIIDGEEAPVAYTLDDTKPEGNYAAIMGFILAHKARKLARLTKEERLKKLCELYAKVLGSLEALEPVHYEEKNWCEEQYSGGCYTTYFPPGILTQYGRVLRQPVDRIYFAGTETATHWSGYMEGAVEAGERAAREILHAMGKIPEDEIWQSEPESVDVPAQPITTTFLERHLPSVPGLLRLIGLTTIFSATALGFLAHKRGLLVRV

Sequence of purified AChE (P22303 32-614): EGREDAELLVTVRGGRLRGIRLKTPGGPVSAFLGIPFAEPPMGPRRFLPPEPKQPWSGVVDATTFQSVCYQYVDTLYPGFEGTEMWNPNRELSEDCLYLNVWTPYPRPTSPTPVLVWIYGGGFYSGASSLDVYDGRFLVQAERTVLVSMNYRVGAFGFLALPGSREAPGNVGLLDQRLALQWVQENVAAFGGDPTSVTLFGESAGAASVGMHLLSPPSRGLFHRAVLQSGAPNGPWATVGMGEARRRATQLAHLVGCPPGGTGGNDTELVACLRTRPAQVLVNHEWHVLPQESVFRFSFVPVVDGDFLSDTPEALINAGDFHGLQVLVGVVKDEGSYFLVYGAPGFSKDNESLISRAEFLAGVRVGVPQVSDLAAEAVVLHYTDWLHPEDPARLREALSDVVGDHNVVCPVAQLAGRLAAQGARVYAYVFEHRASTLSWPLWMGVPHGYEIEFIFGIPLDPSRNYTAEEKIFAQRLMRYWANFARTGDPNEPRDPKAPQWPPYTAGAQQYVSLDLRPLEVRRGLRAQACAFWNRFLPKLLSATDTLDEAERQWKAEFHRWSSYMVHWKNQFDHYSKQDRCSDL

SMILES: CCN1C[C@]2(COC)[C@H](O)C[C@H](OC)[C@@]34[C@@H]5C[C@@]6(O)[C@H](OC(=O)c7ccccc7)[C@@H]5[C@@](OC(C)=O)([C@@H]([C@H](OC)[C@H]23)[C@@H]14)[C@@H](O)[C@@H]6OC [aconitine]
- effect on PMR excitation phase (motor response to the first stimulus) (embryonic zebrafish [1]): prolongation of the PMR excitation period

SMILES: CNC[C@H](O)c1ccc(O)c(O)c1 [epinephrine]
- effect on motor activity in the PMR (embryonic zebrafish [1]): elevated activity in all PMR phases

SMILES: C[C@]12CC[C@H](O)C[C@H]1CC[C@@H]1[C@@H]2CC[C@]2(C)[C@@H](C3=CC(=O)OC3)CC[C@]12O [digitoxigenin]
- toxicity in the PMR assay (embryonic zebrafish [1]; concentrations above the active range (Supplementary Fig. 1)): induced toxicities at higher concentrations
- effect on PMR excitation phase (motor response to the first stimulus) (embryonic zebrafish [1]): caused a vigorous and prolonged motor response to the stimulus; also recorded: prolongation of the PMR excitation period
- effect on PMR excitation phase (motor response to the first stimulus) (embryonic zebrafish [1]; listed as Digitoxigenin): prolongs duration of the PMR excitation phase

SMILES: CC(C)[C@@]1(NC(=O)[C@@H]2C[C@@H]3c4cccc5[nH]cc(c45)C[C@H]3N(C)C2)O[C@@]2(O)[C@@H]3CCCN3C(=O)[C@H](Cc3ccccc3)N2C1=O [dihydroergocristine]
- effect on PMR latency period (embryonic zebrafish [1]): prolonged latency period

SMILES: O=C1c2ccccc2-c2nc3ncnn3c(-c3ccccc3Cl)c21 [STR—2]
- phenotype in the ETR assay (embryonic zebrafish [2]): slow—to—relax (STR) phenotype
- inhibition of purified AChE in vitro (purified AChE): did not inhibit purified AChE in vitro

SMILES: CC(=O)CC(c1ccccc1)c1c(O)c2ccccc2oc1=O (stereo not drawn) [warfarin]
- PMR magnitude stimulant (MAG) phenotype (embryonic zebrafish [1]; increased PMR excitation magnitude and duration, warfarin at 10 μM): do not produce a MAG phenotype
- inhibition of MAO activity (MAO—B): nor inhibit MAO activity

SMILES: CN1CCc2cccc3c2[C@H]1Cc1ccc(O)c(O)c1-3 [apomorphine]
- effect on PMR latency period (embryonic zebrafish [1]): lengthened the PMR latency period
- effect on PMR latency period (embryonic zebrafish [1]; listed as Apomorphine): increases PMR latency period duration

SMILES: COc1ccc(C(=O)O[C@H]2CC[C@@]3(C)[C@@H]4CC[C@H]5[C@]6(O)C[C@H](O)[C@@]7(O)[C@@H](CN8C[C@@H](C)CC[C@H]8[C@@]7(C)O)[C@]6(O)C[C@@]53O[C@]24O)cc1OC [veratridine]
- effect on PMR excitation phase (motor response to the first stimulus) (embryonic zebrafish [1]): prolongation of the PMR excitation period

SMILES: C[n+]1ccccc1C=NO [pralidoxime]
- suppression of AzMet behavioral effects (PMR excitation) (embryonic zebrafish [1]): counteracted the behavioral effects of AzMet

SMILES: COP(=S)(OC)SCn1nnc2ccccc2c1=O [azinphos methyl]
- paralysis in zebrafish (embryonic zebrafish [1]; compared to untreated controls): caused paralysis in zebrafish
- effect on PMR excitation phase (motor response to the first stimulus) (embryonic zebrafish [1]): reduced levels of PMR excitation

SMILES: CC(C)(C)NCC(O)c1cc(Cl)c(N)c(Cl)c1 (stereo not drawn) [clenbuterol]
- effect on motor activity in the PMR (embryonic zebrafish [1]): elevated activity in all PMR phases

SMILES: O=[N+]([O-])c1ccc2nc(N3CCNCC3)ccc2c1 [6—nitroquipazine]
- effect on PMR excitation phase (motor response to the first stimulus) (embryonic zebrafish [1]): exhibited a robust but brief motor response to the first stimulus
- effect on PMR refractory period (response to the second stimulus) (embryonic zebrafish [1]): also responded to the second stimulus
- effect on PMR refractory period (response to the second stimulus) (embryonic zebrafish [1]; listed as 6—Nitroquipazine): modulates the PMR refractory period

SMILES: CNC(=O)Oc1ccc2c(c1)[C@]1(C)CCN(C)[C@@H]1N2C [eserine]
- phenotype in the ETR assay (embryonic zebrafish [2]): slow—to—relax (STR) phenotype

SMILES: O=C(CCCN1C(=O)c2ccccc2C1=O)N1CCCCCC1 [STR—1]
- phenotype in the ETR assay (embryonic zebrafish [2]): slow—to—relax (STR) phenotype

SMILES: CN1[C@@H]2CC[C@H]1C[C@@H](OC(=O)C(CO)c1ccccc1)C2 (stereo partly drawn) [atropine]
- suppression of AzMet behavioral effects (PMR excitation) (embryonic zebrafish [1]): counteracted the behavioral effects of AzMet

SMILES: Oc1cc2c(cc1O)[C@H]1c3ccccc3CN[C@@H]1CC2 (racemic) [dihydrexidine]
- effect on PMR latency period (embryonic zebrafish [1]): prolonged latency period

SMILES: C[C@]12CC[C@H]3[C@@H](CC[C@]4(O)C[C@@H](O)CC[C@]34C(=O)O)[C@@]1(O)CC[C@@H]2C1=CC(=O)OC1 [strophanthidinic acid]
- effect on PMR excitation phase (motor response to the first stimulus) (embryonic zebrafish [1]): prolongation of the PMR excitation period

SMILES: CN1C(=O)CN=C(c2ccccc2)c2cc(Cl)ccc21 [diazepam]
- effect on motor activity in the PMR (embryonic zebrafish [1]): decreased activity
- effect on motor activity in the PMR (embryonic zebrafish [1]; listed as Diazepam): reduces motor activity

SMILES: CC(C)NCC(O)c1ccc(O)c(O)c1 (stereo not drawn) [isoproterenol]
- effect on motor activity in the PMR (embryonic zebrafish [1]): increased motor activity throughout the PMR; also recorded: elevated activity in all PMR phases
- effect on motor activity in the PMR (embryonic zebrafish [1]; listed as Isoproterenol): increases zebrafish motor activity

SMILES: CCCN1CCO[C@@H]2c3cc(O)ccc3OC[C@H]21 [PD128907]
- effect on PMR latency period (embryonic zebrafish [1]): prolonged latency period
